Legend:
liver = conditions: in vivo; cited from earlier work
[1] = system: mRNA expressed from the genes (A) to (D) in rat liver; assay: Behavior of genes (mRNA expression level, oligo-DNA microarray) in rat liver after 28-day oral administration; type: in vivo
Procedure, shortened: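 Liver mRNA measured by oligo-DNA microarray after 28 days of once-daily oral gavage in 5-week-old male F344 rats (n=4 per group), with vehicle controls given equal solvent volume. Significance threshold: 1.5-fold up or down versus control, with changes opposite in direction to other carcinogens counted as not significant.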

rodent = conditions: in vivo; cited from earlier work
[2] = gene group (A), Unigene No. Rn.167075
[3] = gene group (C), Unigene No. Rn.120914

OCCCl [TS032, 2-Chloroethanol]
Liver carcinogenicity (liver): Cr− | Behavior of gene caused by administration of chemical substance, Gene No. 154 ([1]; rat, in vivo): − | Behavior of gene caused by administration of chemical substance, Gene No. 533 ([1]; rat, in vivo): − | Behavior of gene caused by administration of chemical substance, Gene No. 725 ([1]; rat, in vivo): − | Behavior of gene caused by administration of chemical substance, Gene No. 813 ([1]; rat, in vivo): − | Behavior of gene caused by administration of chemical substance, Gene No. 893 ([1]; rat, in vivo): − | Behavior of gene caused by administration of chemical substance, Gene No. 1119 ([1]; rat, in vivo): − | Behavior of gene caused by administration of chemical substance, Gene No. 1131 ([1]; rat, in vivo): − | Behavior of gene caused by administration of chemical substance, Gene No. 1163 ([1]; rat, in vivo): − | Behavior of gene caused by administration of chemical substance, Gene No. 1334 ([1]; rat, in vivo): − | Behavior of gene caused by administration of chemical substance, Gene No. 1494 ([1]; rat, in vivo): − | Behavior of gene caused by administration of chemical substance, Gene No. 1562 ([1]; rat, in vivo): − | Behavior of gene caused by administration of chemical substance, Gene No. 1741 ([1]; rat, in vivo): − | Behavior of gene caused by administration of chemical substance, Gene No. 1993 ([1]; rat, in vivo): − | Behavior of gene caused by administration of chemical substance, Gene No. 2026 ([1]; rat, in vivo): − | Behavior of gene caused by administration of chemical substance, Gene No. 2045 ([1]; rat, in vivo): − | Behavior of gene caused by administration of chemical substance, Gene No. 2203 ([1]; rat, in vivo): − | Behavior of gene caused by administration of chemical substance, Gene No. 2494 ([1]; rat, in vivo): − | Behavior of gene caused by administration of chemical substance, Gene No. 2546 ([1]; rat, in vivo): − | Behavior of gene caused by administration of chemical substance, Gene No. 3776 ([1]; rat, in vivo): − | Behavior of gene caused by administration of chemical substance, Gene No. 3929 ([1]; rat, in vivo): − | Behavior of gene caused by administration of chemical substance, Gene No. 4095 ([1]; rat, in vivo): − | Behavior of gene caused by administration of chemical substance, Gene No. 4218 ([1]; rat, in vivo): − | Behavior of gene caused by administration of chemical substance, Gene No. 4846 ([1]; rat, in vivo): − | Behavior of gene caused by administration of chemical substance, Gene No. 4973 ([1]; rat, in vivo): − | Behavior of gene caused by administration of chemical substance, Gene No. 5600 ([1]; rat, in vivo): − | Behavior of gene caused by administration of chemical substance, Gene No. 5634 ([1]; rat, in vivo): − | Behavior of gene caused by administration of chemical substance, Gene No. 5726 ([1]; rat, in vivo): − | Behavior of gene caused by administration of chemical substance, Gene No. 5878 ([1]; rat, in vivo): − | Behavior of gene caused by administration of chemical substance, Gene No. 6026 ([1]; rat, in vivo): − | Behavior of gene caused by administration of chemical substance, Gene No. 6182 ([1]; rat, in vivo): − | Behavior of gene caused by administration of chemical substance, Gene No. 6303 ([1]; rat, in vivo): − | Behavior of gene caused by administration of chemical substance, Gene No. 6620 ([1]; rat, in vivo): − | Behavior of gene caused by administration of chemical substance, Gene No. 6742 ([1]; rat, in vivo): − | Carcinogenicity (rodent): C−

CCC[N+](=O)[O-] [TS036, 1-Nitropropane]
Liver carcinogenicity (liver): Cr− | Behavior of gene caused by administration of chemical substance, Gene No. 4846 ([1]; gene group (A), Unigene No. Rn.144554): − | Behavior of gene caused by administration of chemical substance, Gene No. 2026 [1, 2]: − | Behavior of gene caused by administration of chemical substance, Gene No. 4218 [1, 2]: − | Behavior of gene caused by administration of chemical substance, Gene No. 6182 ([1]; gene group (A), Unigene No. Rn.5834): − | Behavior of gene caused by administration of chemical substance, Gene No. 5600 ([1]; gene group (A), Unigene No. Rn.9836): − | Behavior of gene caused by administration of chemical substance, Gene No. 1494 ([1]; gene group (B), Unigene No. Rn.1430): − | Behavior of gene caused by administration of chemical substance, Gene No. 2045 ([1]; gene group (B), Unigene No. Rn.19329): − | Behavior of gene caused by administration of chemical substance, Gene No. 2203 ([1]; gene group (B), Unigene No. Rn.21240): − | Behavior of gene caused by administration of chemical substance, Gene No. 533 ([1]; gene group (C), Unigene No. Rn.106184): − | Behavior of gene caused by administration of chemical substance, Gene No. 725 ([1]; gene group (C), Unigene No. Rn.108075): + | Behavior of gene caused by administration of chemical substance, Gene No. 1163 ([1]; gene group (C), Unigene No. Rn.11766): − | Behavior of gene caused by administration of chemical substance, Gene No. 4973 ([1]; gene group (C), Unigene No. Rn.118529): + | Behavior of gene caused by administration of chemical substance, Gene No. 4095 ([1]; gene group (C), Unigene No. Rn.119024): + | Behavior of gene caused by administration of chemical substance, Gene No. 1334 [1, 3]: − | Behavior of gene caused by administration of chemical substance, Gene No. 6620 [1, 3]: − | Behavior of gene caused by administration of chemical substance, Gene No. 6303 ([1]; gene group (C), Unigene No. Rn.123063): − | Behavior of gene caused by administration of chemical substance, Gene No. 5878 ([1]; gene group (C), Unigene No. Rn.143213): + | Behavior of gene caused by administration of chemical substance, Gene No. 1131 ([1]; gene group (C), Unigene No. Rn.144946): + | Behavior of gene caused by administration of chemical substance, Gene No. 1562 ([1]; gene group (C), Unigene No. Rn.14744): + | Behavior of gene caused by administration of chemical substance, Gene No. 1741 ([1]; gene group (C), Unigene No. Rn.1647): + | Behavior of gene caused by administration of chemical substance, Gene No. 893 ([1]; gene group (C), Unigene No. Rn.164817): + | Behavior of gene caused by administration of chemical substance, Gene No. 6026 ([1]; gene group (C), Unigene No. Rn.167685): − | Behavior of gene caused by administration of chemical substance, Gene No. 154 ([1]; gene group (C), Unigene No. Rn.185941): + | Behavior of gene caused by administration of chemical substance, Gene No. 1993 ([1]; gene group (C), Unigene No. Rn.18728): + | Behavior of gene caused by administration of chemical substance, Gene No. 813 ([1]; gene group (C), Unigene No. Rn.201760): − | Behavior of gene caused by administration of chemical substance, Gene No. 2494 ([1]; gene group (C), Unigene No. Rn.23969): − | Behavior of gene caused by administration of chemical substance, Gene No. 2546 ([1]; gene group (C), Unigene No. Rn.24561): + | Behavior of gene caused by administration of chemical substance, Gene No. 3776 ([1]; gene group (C), Unigene No. Rn.43232): + | Behavior of gene caused by administration of chemical substance, Gene No. 3929 ([1]; gene group (C), Unigene No. Rn.4620): + | Behavior of gene caused by administration of chemical substance, Gene No. 1119 ([1]; gene group (C), Unigene No. Rn.9757): + | Behavior of gene caused by administration of chemical substance, Gene No. 6742 ([1]; gene group (C), Unigene No. Rn.9779): − | Behavior of gene caused by administration of chemical substance, Gene No. 5634 ([1]; gene group (C), Unigene No. Rn.9862): − | Behavior of gene caused by administration of chemical substance, Gene No. 5726 ([1]; gene group (D), Unigene No. Rn.9939): − | Carcinogenicity (rodent): C−

— patent US20110039721A1, “METHOD FOR PREDICTION ABOUT CARCINOGENICITY OF SUBSTANCE IN RODENT” (Chemicals Evaluation and Research Institute, priority 2007, published 2011)
